{"source": "patent EP0354047A2", "about": "“Herbicidal method using atrazine” (MAY & BAKER LIMITED, priority 1988, dated 1990)", "assay_type_in_all_cases": "in vivo", "key": {"Eleusine indica (ELEIN)": {"tested_on": "Eleusine indica (ELEIN)", "experiment": "Experiment 1: field experiment, post-emergence spray, % control 29 days after application", "settings": "Atrazine 1500g/ha", "method": "Duplicate 12m² plots were sprayed post-emergence with 250g or 500g/ha Compound 1 (in a composition according to Example 1 as described hereinafter) or 1500g/ha atrazine (in a commercial aqueous suspension concentrate formulation containing 500g/l w/v atrazine or a combination (as a tank mix) of the two herbicides in a volume of 300 litres/ha. The following control figures were recorded on the grass weeds Brachiaria plantaginea (BRAPL), Digitaria horizontalis (DIGHO) and Eleusine indica (ELEIN) 29 days after application."}, "Brassica kaber": {"tested_on": "Brassica kaber", "experiment": "Experiment 4: glasshouse, pre-emergence, fresh weight after 27 days, % inhibition of growth", "settings": "for % inhibition of growth: Compound 99 0 g/ha", "method": "(§1) Glasshouse experiments showing the biological interaction between atrazine and Compound 99 on weed species when applied pre-emergence. […] After 27 days the fresh weight of vegetation in each pot was determined. […] E = […]00005:character} where E, X and Y are percentage inhibition of growth. In addition the ED90 values (the application rate giving 90% inhibition of growth) were calculated from the results for Compound 99 alone and with increasing rates of atrazine. The ED90 values were then used to plot an isobole for each species according to the method of […] op cit. The results of percentage inhibition of growth, the ED values calculated from them and the calculated expected values are given in Table 8."}, "Sida spinosa": {"tested_on": "Sida spinosa", "experiment": "Experiment 4: glasshouse, pre-emergence, fresh weight after 27 days, % inhibition of growth", "settings": "for % inhibition of growth: Compound 99 0 g/ha", "method": "as §1"}}, "data": [{"smiles": "CCNc1nc(Cl)nc(NC(C)C)n1", "note": "[Atrazine, 2-chloro-4-ethylamino-6-isopropylamino-1,3,5-triazine]", "values": [{"measurement": "% control observed", "setting": "Eleusine indica (ELEIN)", "result": 0, "unit": "%"}, {"measurement": "ED₉₀", "setting": "Brassica kaber; Atrazine alone", "result": "ED₉₀(g/ha) 157.7"}, {"measurement": "% inhibition of growth", "setting": "Brassica kaber; Atrazine 16 g/ha", "result": 0, "unit": "%"}, {"measurement": "% inhibition of growth", "setting": "Brassica kaber; Atrazine 31 g/ha", "result": 0, "unit": "%"}, {"measurement": "% inhibition of growth", "setting": "Brassica kaber; Atrazine 63 g/ha", "result": 34, "unit": "%"}, {"measurement": "% inhibition of growth", "setting": "Brassica kaber; Atrazine 125 g/ha", "result": 70, "unit": "%"}, {"measurement": "% inhibition of growth", "setting": "Brassica kaber; Atrazine 250 g/ha", "result": 100, "unit": "%"}, {"measurement": "% inhibition of growth", "setting": "Brassica kaber; Atrazine 500 g/ha", "result": 100, "unit": "%"}, {"measurement": "ED₉₀", "setting": "Sida spinosa; Atrazine alone", "result": "ED₉₀(g/ha) 478.75"}, {"measurement": "% inhibition of growth", "setting": "Sida spinosa; Atrazine 16 g/ha", "result": 10, "unit": "%"}, {"measurement": "% inhibition of growth", "setting": "Sida spinosa; Atrazine 31 g/ha", "result": 2, "unit": "%"}, {"measurement": "% inhibition of growth", "setting": "Sida spinosa; Atrazine 63 g/ha", "result": 15, "unit": "%"}, {"measurement": "% inhibition of growth", "setting": "Sida spinosa; Atrazine 125 g/ha", "result": 23, "unit": "%"}, {"measurement": "% inhibition of growth", "setting": "Sida spinosa; Atrazine 250 g/ha", "result": 37, "unit": "%"}, {"measurement": "% inhibition of growth", "setting": "Sida spinosa; Atrazine 500 g/ha", "result": 95, "unit": "%"}]}]}
